Measured values taken from article PMC4859609, “Inhibition and Larvicidal Activity of Phenylpropanoids from Piper sarmentosum on Acetylcholinesterase against Mosquito Vectors and Their Binding Mode of Interaction” (PLoS ONE, 2016).

Columns and labels:
[1] = tested on: Cx. quinquefasciatus eggs; experiment: Ovicidal activity (egg hatching); details: for mortality at 25 µg/mL: read-out: ovicidal activity (% of egg mortality), 25 μg/mL
[2] = biological target: AChE extracted from Ae. aegypti larvae (Aedes aegypti, UniProt A4GND7); experiment: Acetylcholinesterase inhibition assay (in vitro, modified Ellman); assay type: biochemical
AChE extracted from Ae. aegypti larvae, sequence (A4GND7 37-679): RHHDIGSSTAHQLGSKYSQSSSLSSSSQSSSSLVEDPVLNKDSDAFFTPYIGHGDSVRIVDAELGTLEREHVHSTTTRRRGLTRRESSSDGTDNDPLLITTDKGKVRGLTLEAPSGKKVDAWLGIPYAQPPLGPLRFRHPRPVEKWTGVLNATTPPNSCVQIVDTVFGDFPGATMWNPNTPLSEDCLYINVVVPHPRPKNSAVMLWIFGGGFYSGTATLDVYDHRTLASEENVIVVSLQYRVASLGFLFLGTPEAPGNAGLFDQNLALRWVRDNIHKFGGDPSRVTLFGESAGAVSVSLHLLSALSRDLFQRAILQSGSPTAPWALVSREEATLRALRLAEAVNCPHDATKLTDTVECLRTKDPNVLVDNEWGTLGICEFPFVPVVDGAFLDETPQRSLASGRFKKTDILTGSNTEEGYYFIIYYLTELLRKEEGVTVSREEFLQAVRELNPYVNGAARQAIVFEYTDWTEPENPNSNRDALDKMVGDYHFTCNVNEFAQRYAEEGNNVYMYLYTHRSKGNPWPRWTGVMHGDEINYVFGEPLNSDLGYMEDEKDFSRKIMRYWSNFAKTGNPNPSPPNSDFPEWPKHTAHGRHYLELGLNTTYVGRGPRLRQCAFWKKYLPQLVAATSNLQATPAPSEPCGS
Description: (§1) For this experiments, the larvae were removed and homogenized at 0°C (keeping the homogenized mixture in plastic tube covered with ice) in 0.05 M-phosphate buffer, pH7.5 (KH2PO4-NaOH) (Merck, USA) by using a glass homogenizer with a polytetrafluoroethylene (PTFE) pestle (5%, w/v, homogenate). The homogenates were centrifuged for 20 min at 5°C and 16000 rpm. These supernatants were collected with pipette and kept inside the ice for studying the AChE inhibition biochemical assay.
(§2) To determine the IC50 values, procedures from Ellman et al., 1961 were modified and applied. Electronic multichannel pipette (Eppendorf, USA) was used to transfer exact 10 μL of enzyme solution to each well of a 96-well microtiter plate further mixed with 20 μL of tested compounds in solution form and 150 μL of cold phosphate buffer which were kept in refrigerator 1–4°C. The assay microtiter plates were incubated at 25°C for 10 min. Inhibitors were dissolved in DMSO (Merck, USA) in several concentration and stocks diluted to give a final concentration of 0.1% DMSO (v/v) were added into test well in separated rows. This was followed by adding 20 μL of acetylthiocholine iodide (ACTHI) (Sigma-Aldrich, USA) (0.4 mM) and DTNB (Sigma-Aldrich, USA) (0.3 mM) to enzyme solution to observe the reaction. Yellowish or colorless solution was observed during reaction for 30 minutes at room temperature. Changes in absorbance were recorded by a microplate readers (Synergy H1 Hybrid Multi-Mode Microplate Reader, USA) at 412 nm. Enzyme concentrations used were within the linear range of their toxicity activity.
(§3) %Inhibition=[Acon−Asam/Acon]×100%,where
(§4) Acon: the absorbance of the control
(§5) Asam: the absorbance of the test sample.
(§6) The IC50 was calculated by log-probit analysis using Polo Plus program. Another set of supernatant was loaded with 20 μL of ACTHI and DTNB solution only which served as control. The mean IC50 significant values were statistically determined by comparison of confident interval.

[3] = tested on: AChE extracted from Cx. quinquefasciatus larvae; experiment: as above; assay type: biochemical; details: Culex quinquefasciatus; 95% confidence interval in brackets; log-probit
Description: as §1, §2, §3, §4, §5, §6

[4] = biological target: AChE extracted from Cx. quinquefasciatus larvae (Culex quinquefasciatus, UniProt Q867X2); experiment: as above; assay type: biochemical
AChE extracted from Cx. quinquefasciatus larvae (Culex quinquefasciatus, UniProt Q867X2), sequence (Q867X2 whole entry): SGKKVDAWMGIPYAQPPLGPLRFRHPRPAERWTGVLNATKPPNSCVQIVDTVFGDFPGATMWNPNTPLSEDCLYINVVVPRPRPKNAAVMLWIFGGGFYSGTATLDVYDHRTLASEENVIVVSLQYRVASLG
Description: as §1, §2, §3, §4, §5, §6

[5] = biological target: AChE extracted from Ae. albopictus larvae (Aedes albopictus, UniProt Q2PGF2); experiment: as above; assay type: biochemical
AChE extracted from Ae. albopictus larvae, sequence (Q2PGF2 37-680): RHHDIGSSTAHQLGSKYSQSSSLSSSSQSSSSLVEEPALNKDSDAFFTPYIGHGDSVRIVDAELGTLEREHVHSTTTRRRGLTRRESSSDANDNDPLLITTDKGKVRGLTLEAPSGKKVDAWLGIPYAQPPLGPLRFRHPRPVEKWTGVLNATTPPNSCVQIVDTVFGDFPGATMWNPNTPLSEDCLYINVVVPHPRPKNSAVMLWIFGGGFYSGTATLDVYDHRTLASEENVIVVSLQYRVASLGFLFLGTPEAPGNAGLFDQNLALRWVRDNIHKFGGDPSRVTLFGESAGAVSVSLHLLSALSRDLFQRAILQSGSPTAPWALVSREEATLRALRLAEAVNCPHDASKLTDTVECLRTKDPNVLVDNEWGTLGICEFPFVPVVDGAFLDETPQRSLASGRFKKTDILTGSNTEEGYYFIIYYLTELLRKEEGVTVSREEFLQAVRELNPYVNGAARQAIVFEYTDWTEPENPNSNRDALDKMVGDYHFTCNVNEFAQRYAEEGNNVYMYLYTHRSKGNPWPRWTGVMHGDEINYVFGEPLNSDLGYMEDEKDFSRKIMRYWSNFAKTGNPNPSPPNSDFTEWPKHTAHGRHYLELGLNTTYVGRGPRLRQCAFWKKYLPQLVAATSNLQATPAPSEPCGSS
Description: as §1, §2, §3, §4, §5, §6

Ae. albopictus eggs = experiment: Ovicidal activity (egg hatching); details: for mortality at 25 µg/mL: read-out: ovicidal activity (% of egg mortality), 25 μg/mL
Ae. aegypti eggs = experiment: Ovicidal activity (egg hatching); details: for mortality at 25 µg/mL: read-out: ovicidal activity (% of egg mortality), 25 μg/mL
[6] = tested on: blood-starved female Ae. albopictus; experiment: Repellent activity (WHO procedure, treated forearm in cage); assay type: in vivo, Aedes albopictus; details: for % repellency: 300 μg/mL
Description: (§7) This study was carried out according to the method described by WHO standard procedure. Three-day-old blood-starved female of Ae.aegypti, Ae. albopictus and Cx. quinquefasciatus (100 each) were kept in a net cage (23 cm × 23 cm × 23 cm). Hands that had no contact with lotions, perfumes or perfumed soaps were exposed to the mosquito cage. Only 25 cm^2 dorsal side of the skin on each arm was exposed and the remaining area covered by rubber gloves. The tested substance was applied at several dosages, separately in the exposed area of the forearm. Acetone was served as control. The timing of the test depended on whether the tested mosquitoes were day or night biters. Ae.aegypti and Ae. albopictus were tested from 6 am to 9 am hours, while Cx. quinquefasciatus was tested from […] to 7 pm hours. Both control and treated arms were introduced simultaneously into the mosquito cage, and followed by gentle tapping on the sides of the experimental cages to activate the mosquitoes. Each test concentration was repeated four times. The volunteers conducted test for each concentration by inserting the treated and control arms into the same cage for one minute and repeated this action every five minutes. The mosquitoes that landed on the hand were recorded and then shaken off before imbibing any blood. The percentage of repellency was calculated by the following formula, %Repellency=[Ta−Tb/Ta]×100%,where
(§8) Ta: the number of mosquitoes in the control group.
(§9) Tb: the number of mosquitoes in the treated group.

[7] = tested on: blood-starved female Cx. quinquefasciatus; experiment: as above; assay type: in vivo, Culex quinquefasciatus
Description: as §7, §8, §9

[8] = tested on: Culex quinquefasciatus larvae; experiment: Larval bioassay (WHO larvicidal procedure), late 3rd or early 4th larvae; details: for mortality at 9.3 µg/mL: Culex quinquefasciatus, 24 h, read-out: % larvae mortality; for dosage that can cause 50% mortality: larvae; for dosage that can cause 50% mortality / % larvae mortality: 24 hours; for % larvae mortality: ≤ 15 μg/mL
Description: (§10) All tested insects used for the experiments were obtained from colonies cultured in the laboratory at 27 ± 2°C and 65 ± 5% relative humidity. To determine the susceptibility, three species of adult mosquitoes and larvae of Ae. aegypti, Ae. albopictus and Cx. quinquefasciatus were used as sample and were measured over a period of 1 year (2012–2013) in this study. Each different species was categorized and reared in laboratory as laboratory strains. Ae. aegypti, Ae. albopictus and Cx. quinquefasciatus were collected from cemetery near the Malaysia International Airport KLI, 2011. Mosquito larvae were placed in plastic containers located in cages (23cm x 23cm x 23cm) at laboratory condition with a photoperiod of 13 hours of daylight and 11 hours of darkness for emergence.
(§11) The larval bioassay was performed on late 3rd or early 4th larvae of Ae. aegypti, Ae. albopictus and Cx. quinquefasciatus according to the WHO larvicidal activity standard procedure. 15 mg of asaricin 1, isoasarone 2 and trans-asarone 3 were separately dissolved in 1 mL of acetone as stock solution and several concentrations (4 to 20 μg/mL) were prepared through serial dilution by mixing specific amount of stock solution with 250mL distilled water. Twenty five larvae of Ae. aegypti, Ae. albopictus and Cx. quinquefasciatus were separately introduced into the plastic cups containing appropriate concentrations of asaricin 1, isoasarone 2 and trans-asarone 3. Control was only treated with 1 mL acetone added to 250mL distilled water. Mortality of the tested larvae was recorded at the end of 24 hours. Each treatment was replicated four times.
(§12) %larvae mortality=Number of dead larvae/Total number of introduced larvae×100%

Aedes aegypti larvae = experiment: as above; details: 24 hours; for dosage that can cause 50% mortality: larvae
Description: as §10, §11, §12

Aedes albopictus larvae = experiment: as above; details: 24 hours; for dosage that can cause 50% mortality: larvae
Description: as §10, §11, §12

[9] = tested on: blood-starved female Ae. aegypti; experiment: Repellent activity (WHO procedure, treated forearm in cage); assay type: in vivo, Aedes aegypti; details: for % repellency: 300 μg/mL
Description: as §7, §8, §9

[10] = even at higher dosage of 100 μg/mL
[11] = Culex quinquefasciatus, 48 h, 48 hours
[12] = Aedes albopictus, 48 h, 48 hours

| Structure (SMILES) | Slope ± S.E of log-probit AChE inhibition curve [2] | Slope ± S.E of log-probit AChE inhibition curve [4] | Slope ± S.E of log-probit AChE inhibition curve [5] | mortality at 9.3 µg/mL [8] [%] | % larvae mortality (Aedes albopictus larvae; ≤ 9.3 μg/mL) | mortality at 25 µg/mL [1, 11] [%] | mortality at 25 µg/mL (Ae. albopictus eggs; [12]) [%] | mortality at 25 µg/mL (Ae. aegypti eggs; Aedes aegypti, 48 h, 48 hours) [%] | % repellency [6] | repellent activity (in words) ([6]; 50 to 150 μg/mL) | repellent activity (in words) ([7]; 50 to 150 μg/mL) | dosage that can cause 50% mortality [8] [µg/mL] | dosage that can cause 50% mortality (Aedes aegypti larvae) [µg/mL] | dosage that can cause 50% mortality (Aedes albopictus larvae) [µg/mL] | % repellency [9] | repellent activity (in words) ([9]; 50 to 150 μg/mL) | other results |
| --- | --- | --- | --- | --- | --- | --- | --- | --- | --- | --- | --- | --- | --- | --- | --- | --- | --- |
| C/C=C/c1cc(OC)c(OC)cc1OC [Trans-asarone 3, trans-asarone] | 3.63±0.14 | 2.46±0.13 | 2.00±0.16 | 5 to 20 | 5–20% |  |  |  |  |  |  |  |  |  |  |  | effect on egg hatchability [1, 10]: no effect; AChE enzyme inhibition IC50 [3]: 17.4(12.6 to 24.4) μg/mL; effect on egg hatchability (Ae. albopictus eggs; [10]): no effect; effect on egg hatchability (Ae. aegypti eggs; [10]): no effect; repellent activity (in words) ([6]; in vivo): not significant; repellent activity (in words) ([7]; in vivo): not significant; % larvae mortality (Aedes aegypti larvae; ≤ 9.3 μg/mL): 5–20%; repellent activity (in words) ([9]; in vivo): not significant |
| C=CCc1cc(OC)c(OC)cc1OC [Isoasarone 2, isoasarone] | 2.41±0.15 | 2.29±0.13 | 2.57±0.14 | ≤ 80 | ≤ 90% | ≤ 95 | ≤ 95 | ≤ 95 | below 55% | very weak | very weak | ≤ 7 | ≤ 7 | ≤ 7 | below 55% | very weak | mortality at 20 µg/mL ([1]; Culex quinquefasciatus, 48 h, read-out: ovicidal activity (% of egg mortality), 20 μg/mL, 48 hours): 80 to 90%; mortality at 20 µg/mL (Ae. albopictus eggs; Aedes albopictus, 48 h, read-out: ovicidal activity (% of egg mortality), 20 μg/mL, 48 hours): 80 to 90%; mortality at 20 µg/mL (Ae. aegypti eggs; Aedes aegypti, 48 h, read-out: ovicidal activity (% of egg mortality), 20 μg/mL, 48 hours): 80 to 90% |
| C=CCc1cc2c(cc1OC)OCO2 [Asaricin 1, asaricin] | 2.07±0.13 | 2.50±0.14 | 2.25±0.14 | ≤ 80 | ≤ 90% | ≤ 95 | ≤ 95 | ≤ 95 | below 65% | very weak | very weak | ≤ 7 | ≤ 7 | ≤ 7 | below 65% | very weak | % repellency ([7]; 300 μg/mL): below 65%; % larvae mortality [8]: up to 100%; % larvae mortality ([8]; listed as asaricin 1): 100%; % larvae mortality (Aedes albopictus larvae; ≤ 15 μg/mL): up to 100%; % larvae mortality (Aedes albopictus larvae; ≤ 15 μg/mL, listed as asaricin 1): 100% |
